Assay [1] has as its system pressor response to AII. Put plainly: Assay C: In vivo intragastric pressor assay response for AII antagonists. Conditions: in vivo pressor response; for inhibition in vivo at 100 mg/kg / inhibition in vivo at 3 mg/kg / inhibition in vivo at 10 mg/kg / inhibition in vivo at 30 mg/kg: Rattus norvegicus; for inhibition in vivo at 30 mg/kg: read-out: Assay C Inhibition. Further details: species or system Sprague-Dawley rats.

The subject of assay [2] is rabbit aortic rings. Put plainly: Assay B: In vitro vascular smooth muscle response for AII (antagonist activity, pA2). The format is cell-based. To be noted: Oryctolagus cuniculus, two values in a cell = two determinations. In outline:
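Endothelium-denuded thoracic aortic rings from male New Zealand white rabbits, in oxygenated Krebs at 37° C. under ~1 g tension, gave isometric AII contraction curves (3×10^−10 to 1×10^−5 M).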

Assay [3] deals with angiotensin II AT1 receptor. The assay can be described thus: Assay A: Angiotensin II binding activity, rat uterine membrane preparation, 125I-AII displacement.
Setting [4] is: intraduodenal, 100 mg/kg intraduodenally.
Where [5] appears, read: intraduodenal, 10 mg/kg intraduodenally.
Setting [6] is: intraduodenal, 30 mg/kg intraduodenally.

SMILES strings stand for the structures. Read-outs that look alike come from different tables or passages of the source.

For orientation: Kb means the affinity of an antagonist, worked out from how it opposes an agonist. Higher therefore signals a less potent antagonist. The term IC50 denotes the concentration at which inhibition is half-maximal. Low readings indicate inhibition by little substance, high ones a need for much substance.

For the molecule `CCCCc1nn(CC(OCc2ccccc2)c2ccccc2)c(=O)n1Cc1ccc(-c2ccccc2-c2nn[nH]n2)cc1` (stereo not shown) [Compound 108], in assay [1] (setting [4]), the inhibition in vivo at 100 mg/kg is 45%. The “Assay C Duration” value in assay [1] (100 mg/kg intraduodenally) was found to be 90 min. Also, the Kb in assay [2] was 5010 nM. In assay [3], this molecule registered an IC50 of 720 nM.

Turning to `CCCCc1cn(C(C)C)c(=O)n1Cc1ccc(-c2ccccc2-c2nnn[nH]2)nc1` [Compound 211], the inhibition in vivo at 3 mg/kg in assay [1] (po, 3 mg/kg intragastrically) turned out to be 35%. For the same molecule, in assay [1] (3 mg/kg intragastrically), the “Assay C Duration” value is over 180 min. For the same molecule, the antagonist equilibrium constant (Kb) in assay [2] is 1.82 nM. The IC50 in assay [3] stood at 18 nM.

In assay [1] (po, 3 mg/kg intragastrically), `CCCCc1nc(-c2ccccc2C(C)C)n(Cc2ccc(-c3ccccc3-c3nnn[nH]3)nc2)n1` [Compound 275] showed an inhibition in vivo at 3 mg/kg of 40%. In addition, the “Assay C Duration” value in assay [1] (3 mg/kg intragastrically) is over 180 min. The same molecule had a Kb in assay [2] of 0.851 nM. For the same molecule, in assay [3], the IC50 was found to be 6.3 nM.

In the case of `CCCCn1nc(C2OCCCO2)nc1Cc1ccc(-c2ccccc2-c2nnn[nH]2)nc1` [Compound 191], the inhibition in vivo at 3 mg/kg in assay [1] (po, 3 mg/kg intragastrically) amounted to 10%. Besides, the “Assay C Duration” value in assay [1] (3 mg/kg intragastrically) worked out at 180 min. The molecule further showed a Kb in assay [2] of 17.8 nM. In assay [3], the IC50 amounted to 81 nM.

As to `CCCCc1cn(-c2ccccc2CC)c(=O)n1Cc1ccc(-c2ccccc2-c2nnn[nH]2)nc1` [Compound 239], the inhibition in vivo at 3 mg/kg in assay [1] (po, 3 mg/kg intragastrically) was found to be 20%. Further, in assay [1] (3 mg/kg intragastrically), the “Assay C Duration” value is over 180 min. The same molecule had a Kb in assay [2] of 13.2 nM. In assay [3], this molecule displayed an IC50 of 6.8 nM.

As for `CCCCc1nn(CC(OCC(=O)OCC)c2ccccc2)c(=O)n1Cc1ccc(-c2ccccc2-c2nn[nH]n2)cc1` (stereo not shown) [Compound 118], in assay [1] (setting [5]), the inhibition in vivo at 10 mg/kg turned out to be 70%. Further, the “Assay C Duration” value in assay [1] (10 mg/kg intraduodenally) was determined as 120 min. In assay [2], this molecule gave a Kb of 0.617 nM. For the same molecule, the IC50 in assay [3] worked out at 37 nM.

In turn, `CCCCn1cc(C2CCCC2)n(Cc2ccc(-c3ccccc3-c3nnn[nH]3)nc2)c1=O` [Compound 203] yielded an inhibition in vivo at 3 mg/kg in assay [1] (po, 3 mg/kg intragastrically) of 50%. In addition, in assay [1] (3 mg/kg intragastrically), the “Assay C Duration” value is over 180 min. In addition, the Kb in assay [2] is 3.72 nM. Further, the IC50 in assay [3] was 9.2 nM.

In assay [1] (po, 3 mg/kg intragastrically), `CCCCc1nc(-c2ccccc2OC)nn1Cc1ccc(-c2ccccc2-c2nnn[nH]2)nc1` [Compound 276] yielded an inhibition in vivo at 3 mg/kg of under 20%. Also, the Kb in assay [2] is 1.95 nM. In assay [3], this molecule had a half-maximal inhibitory concentration (IC50) of 33 nM.

`CCCCc1nc(CCC)n(Cc2ccc(-c3ccccc3-c3nnn[nH]3)cc2)n1` [Compound 26]: in assay [1] (po, 10 mg/kg intragastrically), the inhibition in vivo at 10 mg/kg is 50%. Also, the “Assay C Duration” value in assay [1] (10 mg/kg intragastrically) was over 180 min. Also, the Kb in assay [2] is 0.148 nM. Moreover, the IC50 in assay [3] is 3.2 nM.

As to `COC(=O)CC[C@]1(O)CC[C@H]2[C@@H]3C4CC4C4=CC(=O)CC[C@]4(C)[C@]34OC4C[C@@]21C` (stereo partly shown) [Compound 7], the inhibition in vivo at 30 mg/kg in assay [1] (setting [6]) turned out to be 90%. The “Assay C Duration” value in assay [1] (30 mg/kg intraduodenally) was 130 min. Also, the Kb in assay [2] was 9.77 nM. In assay [3], this molecule yielded a half-inhibitory concentration (IC50) of 84 nM.

With `COC(=O)CC[C@]1(O)CC[C@H]2[C@@H]3[C@H](C(=O)OC)CC4=CC(=O)CC[C@]4(C)C34O[C@@H]4C[C@@]21C` (stereo partly shown) [Compound 2], in assay [1] (setting [5]), the inhibition in vivo at 10 mg/kg came to 95%. For the same molecule, in assay [1] (setting [6]), the inhibition in vivo at 30 mg/kg was determined as 98%. Further, the entries for the “Assay C Duration” value in assay [1] (10 mg/kg intraduodenally) and in assay [1] (30 mg/kg intraduodenally) were 60 min and 90 to 120 min, respectively. The molecule also showed a Kb in assay [2] of 42.7 nM. Moreover, the IC50 in assay [3] was 95 nM.

The molecule `C[C@]12CCC(=O)C=C1[C@@H]1CC1[C@H]1[C@@H]3CC[C@@]4(CCC(=O)O4)[C@@]3(C)CC3O[C@]312` (stereo partly shown) [Compound 3] came in with an inhibition in vivo at 10 mg/kg in assay [1] (po, 10 mg/kg intragastrically) of 50%. The inhibition in vivo at 30 mg/kg in assay [1] (po, 30 mg/kg intragastrically) was 100%. For the same molecule, the “Assay C Duration” value in assay [1] (10 mg/kg intragastrically) was over 180 min; in assay [1] (30 mg/kg intragastrically), 200^+ min. This molecule gave a Kb in assay [2] of 2 nM. The IC50 in assay [3] was found to be 5.4 nM.

In turn, `CCCCc1nn(C(C)(C)C(=O)c2ccccc2)c(=O)n1Cc1ccc(-c2ccccc2-c2nn[nH]n2)cc1` [Compound 113] returned an inhibition in vivo at 10 mg/kg in assay [1] (po, 10 mg/kg intragastrically) of 60%. For the same molecule, the “Assay C Duration” value in assay [1] (10 mg/kg intragastrically) was found to be 180 min. In assay [2], the Kb is 3.98 nM. The molecule also registered an IC50 in assay [3] of 12 nM.

`CCCCc1cn([C@H]2[C@H](C)CCC[C@@H]2C)c(=O)n1Cc1ccc(-c2ccccc2-c2nnn[nH]2)nc1` [Compound 247] registered an inhibition in vivo at 3 mg/kg in assay [1] (po, 3 mg/kg intragastrically) of 20%. Further, the “Assay C Duration” value in assay [1] (3 mg/kg intragastrically) worked out at 180 min. The Kb in assay [2] was 5.5 nM. This molecule showed a half-inhibitory concentration (IC50) in assay [3] of 9.4 nM.

`CCCCc1nc(CCCC)n(Cc2ccc(-c3cnccc3-c3nnn[nH]3)cc2)n1` [Compound 255] gave an inhibition in vivo at 3 mg/kg in assay [1] (po, 3 mg/kg intragastrically) of 20%. The “Assay C Duration” value in assay [1] (3 mg/kg intragastrically) is over 180 min. In assay [2], this molecule had a Kb of 24.5 nM. Besides, the IC50 in assay [3] turned out to be 12 nM.

In assay [1] (po, 3 mg/kg intragastrically), `CCCCn1nc(-c2ccccc2Cl)nc1Cc1ccc(-c2ccccc2-c2nnn[nH]2)nc1` [Compound 169] yielded an inhibition in vivo at 3 mg/kg of 15%. Further, the “Assay C Duration” value in assay [1] (3 mg/kg intragastrically) was determined as 180 min. In assay [2], the Kb is 16.6 nM. In assay [3], this molecule gave an IC50 of 150 nM.

As to `C[C@]12C=CC(=O)C=C1[C@@H]1CC1[C@H]1[C@@H]3CC[C@@]4(CCC(=O)O4)[C@@]3(C)CC3O[C@]312` (stereo partly shown) [Compound 6], the inhibition in vivo at 100 mg/kg in assay [1] (setting [4]) was 90%. In addition, the “Assay C Duration” value in assay [1] (100 mg/kg intraduodenally) amounted to 120 min. In assay [2], the Kb is 282 nM. For the same molecule, the IC50 in assay [3] is 1300 nM.

In assay [1] (po, 3 mg/kg intragastrically), `CCCCn1nc(C=O)nc1Cc1ccc(-c2ccccc2-c2nnn[nH]2)nc1` [Compound 190] had an inhibition in vivo at 3 mg/kg of 10%. Moreover, the “Assay C Duration” value in assay [1] (3 mg/kg intragastrically) stood at 180 min. Besides, the Kb in assay [2] was 13.5 nM. This molecule also had an IC50 in assay [3] of 10 nM.

Molecule `CCCCc1nc(CCCC)n(Cc2ccc(-n3c(Br)ccc3-c3nnn[nH]3)cc2)n1` [Compound 152] registered an inhibition in vivo at 3 mg/kg in assay [1] (po, 3 mg/kg intragastrically) of 10%. In addition, in assay [1] (3 mg/kg intragastrically), the “Assay C Duration” value came out at 140 min. Besides, the Kb in assay [2] is 34.7 nM. The same molecule yielded an IC50 in assay [3] of 150 nM.

Regarding `CCCCc1nc(-c2ccccc2C(C)C)nn1Cc1ccc(-c2ccccc2-c2nnn[nH]2)nc1` [Compound 274], the inhibition in vivo at 3 mg/kg in assay [1] (po, 3 mg/kg intragastrically) amounted to 35%. The “Assay C Duration” value in assay [1] (3 mg/kg intragastrically) was over 180 min. In addition, the Kb in assay [2] was 0.871 nM. Moreover, the IC50 in assay [3] was 13 nM.

In turn, `CCCCc1cn(-c2c(Cl)cccc2Cl)c(=O)n1Cc1ccc(-c2ccccc2-c2nnn[nH]2)nc1` [Compound 232] yielded an inhibition in vivo at 3 mg/kg in assay [1] (po, 3 mg/kg intragastrically) of 70%. Besides, the “Assay C Duration” value in assay [1] (3 mg/kg intragastrically) is over 180 min. The Kb in assay [2] was 2.57 nM. The molecule also had an IC50 in assay [3] of 4.4 nM.

Take `CCCCc1nn(CCCCC(=O)OC)c(=O)n1Cc1ccc(-c2ccccc2-c2nn[nH]n2)cc1` [Compound 111]: the inhibition in vivo at 30 mg/kg in assay [1] (setting [6]) came out at 87%. The “Assay C Duration” value in assay [1] (30 mg/kg intraduodenally) stood at 160 min. In assay [2], this molecule showed a Kb of 1 nM. This molecule also showed an IC50 in assay [3] of 45 nM.

In assay [1] (po, 3 mg/kg intragastrically), `CCCCc1nn(CC2CC2)c(=O)n1Cc1ccc(-c2ccccc2-c2nn[nH]n2)cc1` [Compound 115] came in with an inhibition in vivo at 3 mg/kg of 40%. Also, in assay [1] (3 mg/kg intragastrically), the “Assay C Duration” value was over 240 min. In assay [2], this molecule showed a Kb of 6.31 nM. The molecule further displayed an IC50 in assay [3] of 11 nM.

Consider `CCCCc1cn(CC)c(=O)n1Cc1ccc(-c2ccccc2-c2nnn[nH]2)nc1` [Compound 206], for which the inhibition in vivo at 3 mg/kg in assay [1] (po, 3 mg/kg intragastrically) was determined as 30%. For the same molecule, the “Assay C Duration” value in assay [1] (3 mg/kg intragastrically) is over 180 min. The antagonist equilibrium constant (Kb) in assay [2] was 1.78 nM. The same molecule came in with an IC50 in assay [3] of 5.4 nM.

Turning to `CCCCc1nc(Cl)n(Cc2ccc(-c3ccccc3-c3nnn[nH]3)cc2)n1` [Compound 20], in assay [1] (setting [4]), the inhibition in vivo at 100 mg/kg came to 10%. Also, the “Assay C Duration” value in assay [1] (100 mg/kg intraduodenally) is 45 min. This molecule also had a Kb in assay [2] of 1290 nM. Moreover, the IC50 in assay [3] was 78000 nM.

The values are drawn from US20040102423A1, “Spironolactone and angiotensin II antagonist combination therapy for treatment of congestive heart failure” (G.D. Searle & Co., priority 1995, published 2004).
